Source: patent US20240116922A1, “IMIDAZO[1,2-A]PYRIDINE DERIVATIVES AS IRAK4 INHIBITORS AND THEIR USE IN THE TREATMENT OF DISEASE” (BIOGEN MA INC., priority 2020, published 2024)
In brackets after ≈: the same amount, converted by molar mass.

Tested on: not listed separately
Test: Kinetic solubility assay (CLND), pH 6.8
Type: physicochemical
Conditions: aqueous buffer, kinetic from dmso stock; potassium phosphate buffer pH 6.8, 2% DMSO, 24 hours at ambient temperature

| Structure (SMILES) | solubility kinetic at 24 h [µg/mL] |
| --- | --- |
| CC(C)Oc1nc2nc([C@]34CC[C@](C)(C3)OC4)cn2cc1C(=O)Nc1cccn([C@@H]2C[C@H]2F)c1=O (single isomer, unassigned) [Example 120] | 76.7 (≈ 159 µM) |
| CC(C)Oc1nc2nc([C@@]34CC[C@@](C)(C3)OC4)cn2cc1C(=O)Nc1cccn([C@@H]2C[C@H]2F)c1=O (single isomer, unassigned) [Example 122] | 48.8 (≈ 101 µM) |
| CC(C)Oc1nc2nc(C34COC(C)(C3)C4)cn2cc1C(=O)Nc1cccn([C@@H]2C[C@H]2C)c1=O (racemic) [Example 95, (rac)-trans-7-isopropoxy-2-(1-methyl-2-oxabicyclo[2.1.1]hexan-4-yl)-N-(1-(2-methylcyclopropyl)-2-oxo-1,2-dihydropyridin-3-yl)imidazo[1,2-a]pyrimidine-6-carboxamide] | 35.3 (≈ 76.2 µM) |
| CC[C@H](C)Oc1nc2nc(C34COC(C)(C3)C4)cn2cc1C(=O)Nc1cccn([C@@H]2C[C@@H]2F)c1=O (mixture of isomers) [Example 42, 7-((S)-sec-butoxy)-N-(1-(cis-2-fluorocyclopropyl)-2-oxo-1,2-dihydropyridin-3-yl)-2-(1-methyl-2-oxabicyclo[2.1.1]hexan-4-yl)imidazo[1,2-a]pyrimidine-6-carboxamide] | 72.5 |
| Cc1cnc2c(NC(=O)c3cn4cc([C@@]56CC[C@@](C)(C5)OC6)nc4nc3OC(C)C)cnn2c1 (single isomer, unassigned) [Comparator 4B, reference compound] | 2 (≈ 4.33 µM) |
| CC(C)Oc1nc2nc(C34COC(C3)C4)cn2cc1C(=O)Nc1cccn([C@@H]2C[C@@H]2F)c1=O (racemic) [Example 87, (rac)-Cis-2-(2-oxabicyclo[2.1.1]hexan-4-yl)-N-(1-(2-fluorocyclopropyl)-2-oxo-1,2-dihydropyridin-3-yl)-7-isopropoxyimidazo[1,2-a]pyrimidine-6-carboxamide] | 48.4 (≈ 107 µM) |
| CC(C)Oc1nc2nc(C34CCC(C)(CC3)OC4)cn2cc1C(=O)Nc1cccc(C(F)F)n1 [Comparator 5A, N-(6-(difluoromethyl)pyridin-2-yl)-7-isopropoxy-2-(1-methyl-2-oxabicyclo[2.2.2]octan-4-yl)imidazo[1,2-a]pyrimidine-6-carboxamide, reference compound] | 1.5 (≈ 3.18 µM) |
| CC(C)Oc1cc2nc(C34COC(C)(C3)C4)cn2cc1C(=O)Nc1cccn([C@@H]2C[C@H]2F)c1=O (single isomer, unassigned) [Example 154] | 37.2 (≈ 79.7 µM) |
| Cc1cnc2c(NC(=O)c3cn4cc(C56CCC(C)(CC5)OC6)nc4cc3OC(C)C)cnn2c1 [Comparator 5B, 7-isopropoxy-2-(1-methyl-2-oxabicyclo[2.2.2]octan-4-yl)-N-(6-methylpyrazolo[1,5-a]pyrimidin-3-yl)imidazo[1,2-a]pyridine-6-carboxamide, reference compound] | 5.2 (≈ 11 µM) |
| CCC12CC(c3cn4cc(C(=O)Nc5cccn(C6CC6)c5=O)c(OC(C)C)nc4n3)(CO1)C2 [Example 31] | 24.2 (≈ 52.2 µM) |
| COCC12CC(c3cn4cc(C(=O)Nc5cccn([C@H]6C[C@H]6F)c5=O)c(OC(C)C)nc4n3)(CO1)C2 [Example 163, N-(1-((1S,2R)-2-fluorocyclopropyl)-2-oxo-1,2-dihydropyridin-3-yl)-7-isopropoxy-2-(1-(methoxymethyl)-2-oxabicyclo[2.1.1]hexan-4-yl)imidazo[1,2-a]pyrimidine-6-carboxamide] | 66 (≈ 133 µM) |
| CC(C)Oc1nc2nc(C34CCC(CF)(C3)OC4)cn2cc1C(=O)Nc1cccn(C2CC2)c1=O (stereo not shown) [Example 45, N-(1-cyclopropyl-2-oxo-1,2-dihydropyridin-3-yl)-2-(1-(fluoromethyl)-2-oxabicyclo[2.2.1]heptan-4-yl)-7-isopropoxyimidazo[1,2-a]pyrimidine-6-carboxamide] | 6.8 (≈ 14.1 µM) |
| CC(C)Oc1nc2nc(C34COC(C)(C3)C4)cn2cc1C(=O)Nc1cccn(C2C[C@]2(C)C(F)F)c1=O (stereo partly drawn) [Example 144, N-(1-((1S,2S)-2-(difluoromethyl)-2-methylcyclopropyl)-2-oxo-1,2-dihydropyridin-3-yl)-7-isopropoxy-2-(1-methyl-2-oxabicyclo[2.1.1]hexan-4-yl)imidazo[1,2-a]pyrimidine-6-carboxamide] | 34.4 (≈ 67 µM) |
| CC(C)Oc1nc2nc(C34COC(C)(C3)C4)cn2cc1C(=O)Nc1ccnn(C2CC2)c1=O [Example 71, N-(2-cyclopropyl-3-oxo-2,3-dihydropyridazin-4-yl)-7-isopropoxy-2-(1-methyl-2-oxabicyclo[2.1.1]hexan-4-yl)imidazo[1,2-a]pyrimidine-6-carboxamide] | 8.9 (≈ 19.8 µM) |
| CC(C)Oc1nc2nc([C@]34CC[C@](CF)(C3)OC4)cn2cc1C(=O)Nc1cccn(C2CC2)c1=O (single isomer, unassigned) [Example 47] | 9 (≈ 18.7 µM) |
| CC(C)Oc1nc2nc(C34COC(C3)C4)cn2cc1C(=O)Nc1cccn([C@@H]2C[C@@H]2F)c1=O (single isomer, unassigned) [Example 88] | 20.7 (≈ 45.6 µM) |
| CC(C)Oc1nc2nc(C34COC(C3)C4)cn2cc1C(=O)Nc1cccn([C@H]2C[C@H]2F)c1=O (single isomer, unassigned) [Example 89] | 23.9 (≈ 52.7 µM) |
| CC(C)Oc1nc2nc([C@]34CC[C@](C)(C3)OC4)cn2cc1C(=O)Nc1cccn([C@H]2C[C@@H]2F)c1=O (single isomer, unassigned) [Example 121] | 33.9 (≈ 70.4 µM) |
| CC(C)Oc1nc2nc([C@]34CC[C@](C)(C3)OC4)cn2cc1C(=O)Nc1cccn(C2CC2)c1=O (single isomer, unassigned) [Example 13] | 20.3 (≈ 43.8 µM) |
| CC(C)Oc1nc2nc(C34COC(C)(C3)C4)cn2cc1C(=O)Nc1cccn([C@@H]2C[C@H]2C)c1=O (single isomer, unassigned) [Example 156] | 62.8 (≈ 135 µM) |
| CC(C)Oc1cc2nc(C34COC(C)(C3)C4)cn2cc1C(=O)Nc1cccn([C@@H]2C[C@@H]2F)c1=O (racemic) [Example 97, (rac)-Cis-N-(1-(2-fluorocyclopropyl)-2-oxo-1,2-dihydropyridin-3-yl)-7-isopropoxy-2-(1-methyl-2-oxabicyclo[2.1.1]hexan-4-yl)imidazo[1,2-a]pyridine-6-carboxamide] | 59.5 (≈ 128 µM) |
| CC(C)Oc1nc2nc([C@@]34CC[C@@](C)(C3)OC4)cn2cc1C(=O)Nc1cccn([C@H]2C[C@@H]2F)c1=O (single isomer, unassigned) [Example 123] | 73 (≈ 152 µM) |

Same assay, conditions: potassium phosphate buffer pH 6.8, 2% DMSO, 24 hours at ambient temperature

| Structure (SMILES) | pH 6.8 Solubility (ug/mL) |
| --- | --- |
| COC[C@]12C[C@](c3cn4cc(C(=O)Nc5cccn(C6CC6F)c5=O)c(OC(C)C)nc4n3)(CO1)C2 (mixture of isomers) [Example 90, (rac)-Cis-N-(1-(2-fluorocyclopropyl)-2-oxo-1,2-dihydropyridin-3-yl)-7-isopropoxy-2-(1-(methoxymethyl)-2-oxabicyclo[2.1.1]hexan-4-yl)imidazo[1,2-a]pyrimidine-6-carboxamide] | 74.8 |

Biological target: MDR1 (Homo sapiens (Human), UniProt P08183)
Test: in vitro
Conditions: MDCK-MDR1

MDR1, sequence (P08183 whole entry): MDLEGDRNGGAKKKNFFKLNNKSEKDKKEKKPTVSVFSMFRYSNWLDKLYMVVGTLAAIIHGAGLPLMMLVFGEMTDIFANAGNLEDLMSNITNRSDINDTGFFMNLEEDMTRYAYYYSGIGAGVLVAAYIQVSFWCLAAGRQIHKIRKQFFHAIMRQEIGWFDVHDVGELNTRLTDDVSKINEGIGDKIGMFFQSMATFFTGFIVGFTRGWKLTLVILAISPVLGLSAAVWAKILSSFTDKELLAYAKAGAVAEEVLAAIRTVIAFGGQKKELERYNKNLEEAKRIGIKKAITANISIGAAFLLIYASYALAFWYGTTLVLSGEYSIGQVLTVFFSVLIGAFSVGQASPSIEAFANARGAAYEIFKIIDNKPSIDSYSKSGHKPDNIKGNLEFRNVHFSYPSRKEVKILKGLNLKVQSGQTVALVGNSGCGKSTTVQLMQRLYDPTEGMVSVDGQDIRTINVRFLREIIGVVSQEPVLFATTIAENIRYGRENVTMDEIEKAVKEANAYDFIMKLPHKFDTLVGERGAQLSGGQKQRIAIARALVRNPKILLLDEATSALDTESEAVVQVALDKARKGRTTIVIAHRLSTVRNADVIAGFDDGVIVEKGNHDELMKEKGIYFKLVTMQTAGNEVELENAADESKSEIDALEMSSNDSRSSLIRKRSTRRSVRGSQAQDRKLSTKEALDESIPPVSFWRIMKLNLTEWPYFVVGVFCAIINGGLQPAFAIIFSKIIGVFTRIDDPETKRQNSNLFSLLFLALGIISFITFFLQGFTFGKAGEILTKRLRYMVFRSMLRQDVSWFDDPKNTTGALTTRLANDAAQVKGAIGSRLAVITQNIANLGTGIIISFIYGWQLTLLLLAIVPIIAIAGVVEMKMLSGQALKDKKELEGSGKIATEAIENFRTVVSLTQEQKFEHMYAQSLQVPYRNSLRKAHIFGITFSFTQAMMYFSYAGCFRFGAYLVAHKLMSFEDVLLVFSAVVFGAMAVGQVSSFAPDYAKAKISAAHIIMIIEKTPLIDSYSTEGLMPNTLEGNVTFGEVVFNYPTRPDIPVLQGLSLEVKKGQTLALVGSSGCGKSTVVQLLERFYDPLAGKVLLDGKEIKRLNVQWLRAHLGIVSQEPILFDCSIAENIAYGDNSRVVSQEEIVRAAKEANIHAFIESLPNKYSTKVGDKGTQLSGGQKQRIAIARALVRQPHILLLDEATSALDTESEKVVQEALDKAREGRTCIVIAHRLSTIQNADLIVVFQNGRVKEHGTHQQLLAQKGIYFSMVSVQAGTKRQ

| Structure (SMILES) | efflux ratio at 120 min, 1 μM |
| --- | --- |
| CC[C@H](C)Oc1nc2nc(C34COC(C)(C3)C4)cn2cc1C(=O)Nc1cccn([C@@H]2C[C@@H]2F)c1=O (mixture of isomers) [Example 42, 7-((S)-sec-butoxy)-N-(1-(cis-2-fluorocyclopropyl)-2-oxo-1,2-dihydropyridin-3-yl)-2-(1-methyl-2-oxabicyclo[2.1.1]hexan-4-yl)imidazo[1,2-a]pyrimidine-6-carboxamide] | 10.8 |
| Cc1cnc2c(NC(=O)c3cn4cc([C@@]56CC[C@@](C)(C5)OC6)nc4nc3OC(C)C)cnn2c1 (single isomer, unassigned) [Comparator 4B, reference compound] | 2.3 |
| CC(C)Oc1nc2nc(C34CCC(C)(CC3)OC4)cn2cc1C(=O)Nc1cccc(C(F)F)n1 [Comparator 5A, N-(6-(difluoromethyl)pyridin-2-yl)-7-isopropoxy-2-(1-methyl-2-oxabicyclo[2.2.2]octan-4-yl)imidazo[1,2-a]pyrimidine-6-carboxamide, reference compound] | 1 |
| Cc1cnc2c(NC(=O)c3cn4cc(C56CCC(C)(CC5)OC6)nc4cc3OC(C)C)cnn2c1 [Comparator 5B, 7-isopropoxy-2-(1-methyl-2-oxabicyclo[2.2.2]octan-4-yl)-N-(6-methylpyrazolo[1,5-a]pyrimidin-3-yl)imidazo[1,2-a]pyridine-6-carboxamide, reference compound] | 1.4 |
| COCC12CC(c3cn4cc(C(=O)Nc5cccn([C@@H]6C[C@@H]6F)c5=O)c(OC(C)C)nc4n3)(CO1)C2 [Example 162, N-(1-((1R,2S)-2-fluorocyclopropyl)-2-oxo-1,2-dihydropyridin-3-yl)-7-isopropoxy-2-(1-(methoxymethyl)-2-oxabicyclo[2.1.1]hexan-4-yl)imidazo[1,2-a]pyrimidine-6-carboxamide] | 38.2 |
